Source: publication PMC9596375 (2022)

Experiments:
[1] = test system: X2B2-C14U-dU18 (RNA, aptamer, 2'-deoxy at U18) GGAUACACAAGAGUGAUUGAAACUAAGUCUGUGUAUCC; assay: UV-Vis absorbance shift; conditions: 30 mM MgCl2, 140 mM KCl, 10 mM NaCl; 50 mM Tris pH 7.0; ∆λmax 7
[2] = test system: X2B2-C14U (RNA, aptamer) GGAUACACAAGAGUGAUUGAAACUAAGUCUGUGUAUCC; assay: ITC; conditions: 20 mM MgCl2; 10 mM Tris-HCl pH 7.5, 30 °C
[3] = test system: X2B2 (RNA, aptamer) GGAUACACAAGAGCGAUUGAAACUAAGUCUGUGUAUCC; assay: ITC; conditions: 20 mM MgCl2; 10 mM Tris-HCl pH 7.5, 30 °C
[4] = test system: X2B2-C14U-dG13-dU18 (RNA, aptamer, 2'-deoxy at G13 and U18) GGAUACACAAGAGUGAUUGAAACUAAGUCUGUGUAUCC; assay: UV-Vis absorbance shift; conditions: 30 mM MgCl2, 140 mM KCl, 10 mM NaCl; 50 mM Tris pH 7.0; ∆λmax 7
[5] = test system: X2B2-C14U-dG13 (RNA, aptamer, 2'-deoxy at G13) GGAUACACAAGAGUGAUUGAAACUAAGUCUGUGUAUCC; assay: UV-Vis absorbance shift; conditions: 30 mM MgCl2, 140 mM KCl, 10 mM NaCl; 50 mM Tris pH 7.0; ∆λmax 10
[6] = test system: X2B2-A25U (RNA, aptamer) GGAUACACAAGAGCGAUUGAAACUUAGUCUGUGUAUCC; assay: UV-Vis absorbance shift; conditions: 30 mM MgCl2, 140 mM KCl, 10 mM NaCl; 50 mM Tris pH 7.0; 40 µM RNA, 40 µM FAD; ∆λmax 2
[7] = test system: X2B2-C4 (RNA, aptamer) GGAUAGCCAAGAGCGAUUGAAACUAAGUCUGGCUAUCC; assay: UV-Vis absorbance shift; conditions: 30 mM MgCl2, 140 mM KCl, 10 mM NaCl; 50 mM Tris pH 7.0; 40 µM RNA, 40 µM FAD; ∆λmax 7
[8] = test system: X2B2-C3 (RNA, aptamer) GGAUACAGUAGAGCGAUUGAAACUAAGUCACUGUAUCC; assay: UV-Vis absorbance shift; conditions: 30 mM MgCl2, 140 mM KCl, 10 mM NaCl; 50 mM Tris pH 7.0; 40 µM RNA, 40 µM FAD; ∆λmax 5
[9] = test system: X2B2-A21U (RNA, aptamer) GGAUACACAAGAGCGAUUGAUACUAAGUCUGUGUAUCC; assay: UV-Vis absorbance shift; conditions: 30 mM MgCl2, 140 mM KCl, 10 mM NaCl; 50 mM Tris pH 7.0; 40 µM RNA, 40 µM FAD; ∆λmax 1
[10] = test system: X2B2-BT1 (RNA, aptamer) GGAUACAAACGAGCGAUUGAAACUAAGUCGUUGUAUCC; assay: UV-Vis absorbance shift; conditions: 30 mM MgCl2, 140 mM KCl, 10 mM NaCl; 50 mM Tris pH 7.0; 40 µM RNA, 40 µM FAD; ∆λmax 5
[11] = test system: X2B2-G19U (RNA, aptamer) GGAUACACAAGAGCGAUUUAAACUAAGUCUGUGUAUCC; assay: UV-Vis absorbance shift; conditions: 30 mM MgCl2, 140 mM KCl, 10 mM NaCl; 50 mM Tris pH 7.0; 40 µM RNA, 40 µM FAD; ∆λmax 2
[12] = test system: X2B2-C23U (RNA, aptamer) GGAUACACAAGAGCGAUUGAAAUUAAGUCUGUGUAUCC; assay: UV-Vis absorbance shift; conditions: 30 mM MgCl2, 140 mM KCl, 10 mM NaCl; 50 mM Tris pH 7.0; 40 µM RNA, 40 µM FAD; ∆λmax 2
[13] = test system: X2B2-C14U-BT1 (RNA, aptamer) GGAUACAAACGAGUGAUUGAAACUAAGUCGUUGUAUCC; assay: UV-Vis absorbance shift; conditions: 30 mM MgCl2, 140 mM KCl, 10 mM NaCl; 50 mM Tris pH 7.0; 40 µM RNA, 40 µM FAD; ∆λmax 9
[14] = test system: X2B2-U24A (RNA, aptamer) GGAUACACAAGAGCGAUUGAAACAAAGUCUGUGUAUCC; assay: UV-Vis absorbance shift; conditions: 30 mM MgCl2, 140 mM KCl, 10 mM NaCl; 50 mM Tris pH 7.0; 40 µM RNA, 40 µM FAD; ∆λmax 6
[15] = test system: X2B2-C14U-ΔA9 (RNA, aptamer) GGAUACACAGAGUGAUUGAAACUAAGUCUGUGUAUCC; assay: UV-Vis absorbance shift; conditions: 30 mM MgCl2, 140 mM KCl, 10 mM NaCl; 50 mM Tris pH 7.0; 40 µM RNA, 40 µM FAD; ∆λmax 8
[16] = test system: X2B2-C1 (RNA, aptamer) GGAUACACAAGAGCGAACGAAACUAGUUCUGUGUAUCC; assay: UV-Vis absorbance shift; conditions: 30 mM MgCl2, 140 mM KCl, 10 mM NaCl; 50 mM Tris pH 7.0; 40 µM RNA, 40 µM FAD; ∆λmax 0
[17] = test system: X2B2-G13U (RNA, aptamer) GGAUACACAAGAUCGAUUGAAACUAAGUCUGUGUAUCC; assay: UV-Vis absorbance shift; conditions: 30 mM MgCl2, 140 mM KCl, 10 mM NaCl; 50 mM Tris pH 7.0; 40 µM RNA, 40 µM FAD; ∆λmax 1
[18] = test system: X2B2-D3 (RNA, aptamer) GGAUACAGUAGAGCGAUUGAAACUAAGUCUGUGUAUCC; assay: UV-Vis absorbance shift; conditions: 30 mM MgCl2, 140 mM KCl, 10 mM NaCl; 50 mM Tris pH 7.0; 40 µM RNA, 40 µM FAD; ∆λmax 5
[19] = test system: X2B2-D4 (RNA, aptamer) GGAUAGCCAAGAGCGAUUGAAACUAAGUCUGUGUAUCC; assay: UV-Vis absorbance shift; conditions: 30 mM MgCl2, 140 mM KCl, 10 mM NaCl; 50 mM Tris pH 7.0; 40 µM RNA, 40 µM FAD; ∆λmax 6
[20] = test system: X2B2-G11U (RNA, aptamer) GGAUACACAAUAGCGAUUGAAACUAAGUCUGUGUAUCC; assay: UV-Vis absorbance shift; conditions: 30 mM MgCl2, 140 mM KCl, 10 mM NaCl; 50 mM Tris pH 7.0; 40 µM RNA, 40 µM FAD; ∆λmax 0
[21] = test system: X2B2-ΔC14 (RNA, aptamer) GGAUACACAAGAGGAUUGAAACUAAGUCUGUGUAUCC; assay: UV-Vis absorbance shift; conditions: 30 mM MgCl2, 140 mM KCl, 10 mM NaCl; 50 mM Tris pH 7.0; 40 µM RNA, 40 µM FAD; ∆λmax 1
[22] = test system: X2B2-C14A (RNA, aptamer) GGAUACACAAGAGAGAUUGAAACUAAGUCUGUGUAUCC; assay: UV-Vis absorbance shift; conditions: 30 mM MgCl2, 140 mM KCl, 10 mM NaCl; 50 mM Tris pH 7.0; 40 µM RNA, 40 µM FAD; ∆λmax 5
[23] = test system: X2B2-A20U (RNA, aptamer) GGAUACACAAGAGCGAUUGUAACUAAGUCUGUGUAUCC; assay: UV-Vis absorbance shift; conditions: 30 mM MgCl2, 140 mM KCl, 10 mM NaCl; 50 mM Tris pH 7.0; 40 µM RNA, 40 µM FAD; ∆λmax 0
[24] = test system: X2B2-C14U-U24A (RNA, aptamer) GGAUACACAAGAGUGAUUGAAACAAAGUCUGUGUAUCC; assay: UV-Vis absorbance shift; conditions: 30 mM MgCl2, 140 mM KCl, 10 mM NaCl; 50 mM Tris pH 7.0; 40 µM RNA, 40 µM FAD; ∆λmax 1
[25] = test system: X2B2-D2 (RNA, aptamer) GGAUACACAAGAGCACUUGAAACUAAGUCUGUGUAUCC; assay: UV-Vis absorbance shift; conditions: 30 mM MgCl2, 140 mM KCl, 10 mM NaCl; 50 mM Tris pH 7.0; 40 µM RNA, 40 µM FAD; ∆λmax 4
[26] = test system: 12.8 (RNA, aptamer) GGGAAAAGCGAAUCAUACACAAGAGUGUGACGCACUUUAUGAUCGGAGGCCGUCAUUGUAUGGCGUGGGCAUAAGGUAUUUAAUUCCAUA; assay: in-line probing; conditions: 30 mM MgCl2; 25 mM Tris pH 8.0, 37 °C, 18 h; 500 µM FAD
[27] = test system: X2B2-ΔA9 (RNA, aptamer) GGAUACACAGAGCGAUUGAAACUAAGUCUGUGUAUCC; assay: UV-Vis absorbance shift; conditions: 30 mM MgCl2, 140 mM KCl, 10 mM NaCl; 50 mM Tris pH 7.0; 40 µM RNA, 40 µM FAD; ∆λmax 2
[28] = test system: X2B2-A10U (RNA, aptamer) GGAUACACAUGAGCGAUUGAAACUAAGUCUGUGUAUCC; assay: UV-Vis absorbance shift; conditions: 30 mM MgCl2, 140 mM KCl, 10 mM NaCl; 50 mM Tris pH 7.0; 40 µM RNA, 40 µM FAD; ∆λmax 5
[29] = test system: X2B2-D1 (RNA, aptamer) GGAUACACAAGAGCGAACGAAACUAAGUCUGUGUAUCC; assay: UV-Vis absorbance shift; conditions: 30 mM MgCl2, 140 mM KCl, 10 mM NaCl; 50 mM Tris pH 7.0; 40 µM RNA, 40 µM FAD; ∆λmax 1
[30] = test system: X2B2-A22U (RNA, aptamer) GGAUACACAAGAGCGAUUGAAUCUAAGUCUGUGUAUCC; assay: UV-Vis absorbance shift; conditions: 30 mM MgCl2, 140 mM KCl, 10 mM NaCl; 50 mM Tris pH 7.0; 40 µM RNA, 40 µM FAD; ∆λmax 2
[31] = test system: 12.29 (RNA, aptamer) GGGAAAAGCGAAUCAUACACAAGAGCGAUUGAAACUAAGUCUGUGCUAUGUUCGUUAUCGCCGGUGGGGCAUAAGGUAUUUAAUUCCAUA; assay: in-line probing; conditions: 30 mM MgCl2; 25 mM Tris pH 8.0, 37 °C, 18 h; 500 µM FAD
[32] = test system: X2B2-A12U (RNA, aptamer) GGAUACACAAGUGCGAUUGAAACUAAGUCUGUGUAUCC; assay: UV-Vis absorbance shift; conditions: 30 mM MgCl2, 140 mM KCl, 10 mM NaCl; 50 mM Tris pH 7.0; 40 µM RNA, 40 µM FAD; ∆λmax 0
[33] = test system: Neg (RNA, other) GGAACUGCGAUCUAGUGAGACUGACUCGUGAUCGGA; assay: UV-Vis absorbance shift; conditions: 30 mM MgCl2, 140 mM KCl, 10 mM NaCl; 50 mM Tris pH 7.0
[34] = test system: X2B2-C14G (RNA, aptamer) GGAUACACAAGAGGGAUUGAAACUAAGUCUGUGUAUCC; assay: UV-Vis absorbance shift; conditions: 30 mM MgCl2, 140 mM KCl, 10 mM NaCl; 50 mM Tris pH 7.0; 40 µM RNA, 40 µM FAD; ∆λmax 2

In the case of `Cc1cc2nc3c(=O)[nH]c(=O)nc-3n(C[C@H](O)[C@H](O)[C@H](O)COP(=O)(O)O)c2cc1C`, the binding [1] is reported as “yes”, the Kd [2] is reported as 243 ± 28 nM and the Kd [3] is reported as 1414 ± 97 nM. The binding [4] was “yes” and the binding [5] was “yes”.
`Cc1cc2nc3c(=O)[nH]c(=O)nc-3n(C[C@H](O)[C@H](O)[C@H](O)CO)c2cc1C` showed a Kd [2] of 885 ± 85 nM and a Kd [3] of 5333 ± 722 nM.
In the case of `Cc1cc2nc3c(=O)[nH]c(=O)nc-3n(C[C@H](O)[C@H](O)[C@H](O)COP(=O)(O)OP(=O)(O)OC[C@H]3O[C@@H](n4cnc5c(N)ncnc54)[C@H](O)[C@@H]3O)c2cc1C`, the binding [6] is reported as “weak”, the binding [7] is reported as “yes” and the binding [8] is reported as “yes”. For the same compound, the binding [9] was “no”, the binding [10] was “weak” and the binding [11] was “weak”. The binding [12] was “weak”, the binding [13] was “yes” and the Kd [2] was 818 ± 32 nM. The binding [14] was “yes”, the binding [15] was “yes” and the Kd [3] was 7244 ± 398 nM. The binding [16] was “no”, the binding [17] was “no” and the binding [18] was “yes”. The binding [19] was “yes”, the binding [20] was “no” and the binding [21] was “no”. The binding [22] was “weak”, the binding [23] was “no” and the binding [24] was “no”. For the same compound, the binding [25] was “weak”, the binding [26] was “yes” and the binding [27] was “weak”. For the same compound, the binding [28] was “yes”, the binding [29] was “no” and the binding [30] was “weak”. For the same compound, the binding [31] was “yes”, the binding [32] was “no” and the binding [33] was “no”. For the same compound, the binding [34] was “weak”.
